Experimental data taken from article PMC8103899, “Allyl Isothiocyanate: A TAS2R38 Receptor-Dependent Immune Modulator at the Interface Between Personalized Medicine and Nutrition” (Frontiers in Immunology, 2021).
One block for each compound: values may come before it.

Columns and labels:
TAS2R38-PAV receptor = test system: TAS2R38-PAV receptor; parameters: method as in PMID 20022913; conditions: cited from earlier work
TRPA1 = test system: TRPA1; parameters: method as in PMID 21763756; conditions: calcium assays; cited from earlier work
[1] = Human food intervention: AITC metabolite plasma levels after mustard intake (LC-ESI-MS/MS); type: in vivo; conditions: for detection in plasma: human volunteers after mustard preparation (data not shown); for blood plasma level: human volunteers
Experimental: AITC metabolite quantification was carried out in blood plasma samples derived from an intervention study at the University Medical Center in Freiburg, Germany. Samples were from 4 healthy young adults (3 females, 1 male, aged between 30-40 years) having a normal BMI, and were non-smokers. Each subject consumed one time 10 g of a commercially available mustard preparation ([…] Munich, Germany) containing 24.74 ± 1.76 μmol/g fresh weight preformed AITC on an empty stomach with optional consumption of white bread. The intervention was preceded by a 48 h wash-out phase consisting of a glucosinolate/ITC-free diet. After 30 min and optionally 60 min, blood was collected by venipuncture in serum tubes and centrifuged at 2000g for 10 min, 4°C to obtain serum. Subsequently, TFA was added and the samples frozen at -80°C. The preparation of serum samples (300 μL serum and 100 μL TFA) was conducted as described by Kühn et al. ([37]). The frozen samples were thawed, vortexed (1 min) and centrifuged (4 °C, 10 min, 20.854 x g). The supernatant was transferred to SPE cartridges. Prior to transferring, SPE cartridges were conditioned with acetonitrile (ACN, 3 mL) and equilibrated with water (3 mL). After sample application, the cartridges were washed with formic acid (FA, 3 mL, 0.1% in water) and the metabolites were eluted with FA (3 mL, 0.1% in ACN:water, 90:10, v/v). […] The samples were re-dissolved in 100 μL FA (0.1% in ACN:water, 90:10, v/v). Sample aliquots of 5 μL were injected into the LC-ESI-MS/MS system. LC-ESI-MS/MS analysis was performed on an API4000 triple quadrupole mass spectrometer (AB Sciex Germany GmbH, Darmstadt, Germany) equipped with an Agilent 1200 LC system (Agilent Technologies Deutschland GmbH & Co. KG, Waldbronn, Germany). For data acquisition and processing the software Analyst 1.6.1 (AB Sciex Germany GmbH, Darmstadt, Germany) was used. […] AITC-CysGly; AITC-Cys; AITC-NAC) was conducted according to Platz et al. ([38]) with minor modifications. The separation was performed on a Kinetex C18 column (Phenomenex, 5 μm, 100 Å, 150 x 2.1 mm). The autosampler operated at 4°C and the set temperature for the oven was 20°C. A constant flow of 300 μL/min was used for the mobile phase which consisted of 0.1% FA in water (A) and 0.1% FA in ACN (B). […] In order to equilibrate the column, A was increased to 90% and held for 5 min. The relevant MS parameters include an entrance potential of -10 V, a desolvation gas temperature of 450°C, ion spray potential of -4.5 kV, gas 1 and gas 2 at 46 psi and a curtain gas pressure at 10 psi.

[2] = test system: intracellular calcium release; parameters: method as in PMID 8393876; conditions: 1% DMSO; cited from earlier work
TAS2R38 receptor = biological target: T1, TAS2R38 receptor (Homo sapiens, UniProt P59533, A49P/I296V); assay: Calcium flux assay in human PBMC (flow cytometry, Fluo-4 AM); conditions: human PAV/PAV monocytes
T1 sequence (P59533 1-333 A49P/I296V): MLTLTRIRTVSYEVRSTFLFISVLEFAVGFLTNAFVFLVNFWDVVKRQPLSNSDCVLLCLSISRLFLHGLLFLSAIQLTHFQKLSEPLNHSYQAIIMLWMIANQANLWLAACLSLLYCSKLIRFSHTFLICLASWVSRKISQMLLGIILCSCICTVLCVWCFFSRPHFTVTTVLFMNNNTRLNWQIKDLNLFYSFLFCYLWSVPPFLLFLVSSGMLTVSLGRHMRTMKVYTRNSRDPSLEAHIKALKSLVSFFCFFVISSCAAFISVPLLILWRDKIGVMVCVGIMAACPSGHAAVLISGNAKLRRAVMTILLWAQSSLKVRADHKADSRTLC

TAS2R38-PAV = test system: TAS2R38-PAV; parameters: method as in PMID 28902853; conditions: transfected HEK293 cells (~0.9% DMSO solution), approximately; cited from earlier work
[3] = test system: extracellular calcium influx in monocytes; assay: Calcium flux in PAV/PAV monocytes after EDTA pre-treatment before AITC; conditions: 0.5 mM EDTA
TAS2R38 = test system: TAS2R38; parameters: method as in PMID 23041624; conditions: sinonasal cells, TAS2R38 genotype dependent; cited from earlier work
PLC-β2 = PLC-β2 (Homo sapiens, UniProt Q00722); assay: Calcium flux in PAV/PAV monocytes after PLC-β2 antagonist pre-treatment before AITC; conditions: cell pretreatment with U73122 for 30 min
TRPV1 = TRPV1 (Homo sapiens, UniProt Q8NER1); assay: Calcium flux in PAV/PAV monocytes after TRPV1 antagonist pre-treatment before AITC; type: cell-based
Experimental: Baseline fluorescence was recorded for 60 sec.

[4] = test system: LPS stimulated leukocytes; conditions: cited from earlier work
[5] = test system: sinonasal epithelial cells; parameters: method as in PMID 24531552; conditions: cited from earlier work

Sequence of TRPV1 (Q8NER1 whole entry): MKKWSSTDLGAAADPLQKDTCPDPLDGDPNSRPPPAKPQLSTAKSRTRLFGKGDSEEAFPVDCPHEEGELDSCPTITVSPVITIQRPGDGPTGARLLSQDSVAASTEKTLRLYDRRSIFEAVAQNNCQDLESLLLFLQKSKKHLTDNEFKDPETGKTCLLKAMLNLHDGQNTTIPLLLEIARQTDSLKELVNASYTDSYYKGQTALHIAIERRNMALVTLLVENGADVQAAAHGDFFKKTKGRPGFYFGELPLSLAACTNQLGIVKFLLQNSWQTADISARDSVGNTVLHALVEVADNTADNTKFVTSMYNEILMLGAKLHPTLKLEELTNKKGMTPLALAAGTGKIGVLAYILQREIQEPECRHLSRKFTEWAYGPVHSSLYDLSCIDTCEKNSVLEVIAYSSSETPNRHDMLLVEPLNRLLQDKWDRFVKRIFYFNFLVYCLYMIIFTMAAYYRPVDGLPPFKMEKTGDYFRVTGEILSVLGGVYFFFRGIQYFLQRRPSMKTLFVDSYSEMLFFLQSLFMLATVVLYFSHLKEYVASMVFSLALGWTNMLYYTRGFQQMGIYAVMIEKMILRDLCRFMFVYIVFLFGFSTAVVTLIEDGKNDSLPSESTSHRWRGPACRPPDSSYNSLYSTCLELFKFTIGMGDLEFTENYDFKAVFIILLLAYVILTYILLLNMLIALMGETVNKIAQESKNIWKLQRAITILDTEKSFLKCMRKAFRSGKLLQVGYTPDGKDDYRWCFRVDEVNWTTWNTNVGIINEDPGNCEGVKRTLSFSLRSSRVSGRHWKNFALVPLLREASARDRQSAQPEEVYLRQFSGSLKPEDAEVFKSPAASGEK
Sequence of PLC-β2 (Q00722 whole entry): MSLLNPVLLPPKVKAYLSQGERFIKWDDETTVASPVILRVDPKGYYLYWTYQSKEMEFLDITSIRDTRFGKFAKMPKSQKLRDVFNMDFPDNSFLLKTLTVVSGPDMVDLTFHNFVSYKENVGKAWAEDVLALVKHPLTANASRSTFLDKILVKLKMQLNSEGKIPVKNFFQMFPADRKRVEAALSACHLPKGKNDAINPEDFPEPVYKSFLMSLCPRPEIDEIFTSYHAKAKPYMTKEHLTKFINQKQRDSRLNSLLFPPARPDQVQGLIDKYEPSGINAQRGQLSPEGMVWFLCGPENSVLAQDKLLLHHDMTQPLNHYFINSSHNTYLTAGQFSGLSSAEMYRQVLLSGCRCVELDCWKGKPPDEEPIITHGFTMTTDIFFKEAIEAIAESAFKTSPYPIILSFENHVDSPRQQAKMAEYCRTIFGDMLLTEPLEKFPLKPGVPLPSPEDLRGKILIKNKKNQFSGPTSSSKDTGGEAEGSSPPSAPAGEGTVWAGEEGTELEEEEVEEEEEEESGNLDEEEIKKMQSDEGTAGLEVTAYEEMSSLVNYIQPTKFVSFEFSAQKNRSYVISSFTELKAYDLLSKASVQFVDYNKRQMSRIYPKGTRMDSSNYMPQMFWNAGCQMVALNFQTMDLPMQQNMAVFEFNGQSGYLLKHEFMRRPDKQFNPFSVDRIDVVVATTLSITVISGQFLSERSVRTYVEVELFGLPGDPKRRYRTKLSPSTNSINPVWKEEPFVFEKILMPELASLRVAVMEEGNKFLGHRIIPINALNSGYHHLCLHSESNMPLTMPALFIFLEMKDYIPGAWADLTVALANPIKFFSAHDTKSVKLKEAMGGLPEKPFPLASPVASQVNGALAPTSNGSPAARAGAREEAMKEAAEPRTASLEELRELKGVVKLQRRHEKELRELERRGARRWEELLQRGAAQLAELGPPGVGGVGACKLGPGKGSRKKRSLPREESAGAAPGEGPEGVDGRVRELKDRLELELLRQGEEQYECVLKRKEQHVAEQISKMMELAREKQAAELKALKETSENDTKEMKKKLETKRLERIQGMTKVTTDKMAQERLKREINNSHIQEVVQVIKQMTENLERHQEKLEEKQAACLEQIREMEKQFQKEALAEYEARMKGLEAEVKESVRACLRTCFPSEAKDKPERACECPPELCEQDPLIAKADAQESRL

SMILES: C=CCC(=NOS(=O)(=O)O)S[C@@H]1O[C@H](CO)[C@@H](O)[C@H](O)[C@H]1O (stereo in doubt) [sinigrin]
activation of TAS2R38 taster variant among 25 TAS2Rs (TAS2R38-PAV receptor; HEK293T-Gα16gust44 cells transiently transfected): selectively triggered the taster variant

SMILES: C=CCNC(=S)SC[C@H](N)C(=O)NCC(=O)O [AITC-CG]
detection in plasma [1]: No other AITC metabolites (AITC-GSH or AITC-CG) could be detected

SMILES: C=CCNC(=S)SC[C@H](NC(=O)CC[C@H](N)C(=O)O)C(=O)NCC(=O)O [AITC-GSH]
detection in plasma [1]: No other AITC metabolites (AITC-GSH or AITC-CG) could be detected

SMILES: C=CCNC(=S)SC[C@H](NC(C)=O)C(=O)O [AITC-NAC]
blood plasma level ([1]; 0.5 h after 10 g mustard preparation): 0.8367 ± 0.0677 µM
blood plasma level ([1]; 1 h after 10 g mustard preparation): 1.001 ± 0.2283 µM

effect on calcium release (TAS2R38 receptor; 0.1% DMSO): no effect
mean calcium increase compared to untreated cells (TAS2R38 receptor; starting from 1.5% DMSO, not statistically significant): 36%
SMILES: C[S+](C)[O-] [DMSO, Dimethyl sulfoxide]
calcium release [2]: significant calcium release
threshold concentration (TAS2R38-PAV): > 125 mM

SMILES: O=C(O)CN(CCN(CC(=O)O)CC(=O)O)CC(=O)O [EDTA]
effect on calcium influx triggered by AITC ([3]; 1 µM AITC): did not impact
reduction in calcium flux ([3]; 100 µM AITC): 67%

SMILES: C[S@@+]([O-])CCCCN=C=S [L-sulforaphane]
activation of the TAS2R38-PAV receptor (TAS2R38-PAV receptor): did not

SMILES: NC(=S)Nc1ccccc1 [PTC]
NO production (TAS2R38): stimulated

effect on AITC induced calcium release (PLC-β2): almost completely block
SMILES: COc1ccc2c(c1)CC[C@@H]1[C@@H]2CC[C@]2(C)[C@@H](NCCCCCCN3C(=O)C=CC3=O)CC[C@@H]12 [U73122]

effect on AITC mediated calcium release (TRPV1; capsazepine pretreatment, 1 µM AITC): not effected
SMILES: Oc1cc2c(cc1O)CN(C(=S)NCCc1ccc(Cl)cc1)CCC2 [capsazepine]
effect on AITC mediated calcium release (TRPV1; pretreatment 10 µM capsazepine, stimulation with 100 µM AITC): reduction of AITC mediated calcium release

SMILES: CC[N+](CC)(CC(=O)Nc1c(C)cccc1C)Cc1ccccc1 [denatonium]
multiple cytokine production, including TNF-α [4]: marked reduction
cytokine release [5]: marginal change

SMILES: S=C=NCCc1ccccc1 [phenylethyl ITC]
activation of the TAS2R38-PAV receptor (TAS2R38-PAV receptor): activated
